Source: paper PMC6487453 (ACS Central Science, 2019)

Biological target: T1, LTA4H (Homo sapiens, UniProt P09960)
T1 sequence (P09960 2-611): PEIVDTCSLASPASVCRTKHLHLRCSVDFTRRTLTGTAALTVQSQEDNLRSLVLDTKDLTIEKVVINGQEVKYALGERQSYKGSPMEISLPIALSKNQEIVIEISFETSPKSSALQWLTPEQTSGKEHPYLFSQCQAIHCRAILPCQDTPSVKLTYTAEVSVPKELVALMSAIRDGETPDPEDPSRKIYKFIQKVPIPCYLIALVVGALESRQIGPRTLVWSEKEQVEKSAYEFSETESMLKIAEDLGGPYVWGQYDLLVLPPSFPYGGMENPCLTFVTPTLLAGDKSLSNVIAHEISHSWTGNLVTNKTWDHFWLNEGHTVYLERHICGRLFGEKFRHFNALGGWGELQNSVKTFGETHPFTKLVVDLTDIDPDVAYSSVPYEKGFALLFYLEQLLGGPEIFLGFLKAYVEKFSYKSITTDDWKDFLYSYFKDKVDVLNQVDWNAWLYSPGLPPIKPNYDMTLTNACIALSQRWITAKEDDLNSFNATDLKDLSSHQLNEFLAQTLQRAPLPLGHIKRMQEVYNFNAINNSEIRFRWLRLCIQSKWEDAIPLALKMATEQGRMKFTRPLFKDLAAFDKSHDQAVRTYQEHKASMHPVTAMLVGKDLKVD
Test: colorimetric peptidase assay, 4-nitroaniline absorption at […] nm
Assay type: biochemical
Conditions: 50 mM HEPES pH 7.5, 100 mM KCl

c1ccc(/N=N/c2ccc(OCCN3CCCC3)cc2)cc1 [trans-LTA4H-Photoswitch]
colorimetric peptidase assay, 4-nitroaniline absorption at 410 nm (inhibitor, L-alanine 4-nitroanilide 1 mM, 460 nm light): trans-LTA4H-Photoswitch was a more potent inhibitor of LTA4H peptidase than the cis-isomer

C[C@H](N)C(=O)Nc1ccc([N+](=O)[O-])cc1 [L-alanine 4-nitroanilide]
colorimetric peptidase assay, 4-nitroaniline absorption at 410 nm (1 mM substrate): L-alanine 4-nitroanilide which is converted to the strongly absorbing 4-nitroaniline
